These results are taken from US20130178475A1, “sGC STIMULATORS” (IRONWOOD PHARMACEUTICALS, INC., priority 2010, published 2013).

The target in assay [1] is T1, soluble guanylate cyclase (sGC) (Homo sapiens, UniProt Q02108+Q02153).
T1 construct: endogenously expressing soluble guanylate cyclase (sGC); endogenous in cells; host or cells: HEK293
T1 sequence (Q02153 1-619): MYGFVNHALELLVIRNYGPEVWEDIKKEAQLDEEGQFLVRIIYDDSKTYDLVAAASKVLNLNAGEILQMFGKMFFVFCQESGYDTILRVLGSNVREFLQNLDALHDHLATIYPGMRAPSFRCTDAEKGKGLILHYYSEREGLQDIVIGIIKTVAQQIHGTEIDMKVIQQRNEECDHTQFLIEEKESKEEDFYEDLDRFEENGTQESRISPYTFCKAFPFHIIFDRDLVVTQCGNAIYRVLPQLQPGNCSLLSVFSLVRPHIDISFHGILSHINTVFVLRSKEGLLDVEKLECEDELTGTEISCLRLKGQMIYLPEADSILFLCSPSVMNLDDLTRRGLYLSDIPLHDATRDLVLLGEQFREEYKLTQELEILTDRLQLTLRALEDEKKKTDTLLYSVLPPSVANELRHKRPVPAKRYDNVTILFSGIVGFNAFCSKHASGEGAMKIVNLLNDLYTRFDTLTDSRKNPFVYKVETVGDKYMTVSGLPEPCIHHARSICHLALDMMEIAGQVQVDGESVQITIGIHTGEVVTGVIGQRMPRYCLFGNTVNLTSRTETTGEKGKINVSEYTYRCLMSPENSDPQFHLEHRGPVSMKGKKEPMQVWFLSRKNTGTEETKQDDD
T1 sequence (Q02108 1-690): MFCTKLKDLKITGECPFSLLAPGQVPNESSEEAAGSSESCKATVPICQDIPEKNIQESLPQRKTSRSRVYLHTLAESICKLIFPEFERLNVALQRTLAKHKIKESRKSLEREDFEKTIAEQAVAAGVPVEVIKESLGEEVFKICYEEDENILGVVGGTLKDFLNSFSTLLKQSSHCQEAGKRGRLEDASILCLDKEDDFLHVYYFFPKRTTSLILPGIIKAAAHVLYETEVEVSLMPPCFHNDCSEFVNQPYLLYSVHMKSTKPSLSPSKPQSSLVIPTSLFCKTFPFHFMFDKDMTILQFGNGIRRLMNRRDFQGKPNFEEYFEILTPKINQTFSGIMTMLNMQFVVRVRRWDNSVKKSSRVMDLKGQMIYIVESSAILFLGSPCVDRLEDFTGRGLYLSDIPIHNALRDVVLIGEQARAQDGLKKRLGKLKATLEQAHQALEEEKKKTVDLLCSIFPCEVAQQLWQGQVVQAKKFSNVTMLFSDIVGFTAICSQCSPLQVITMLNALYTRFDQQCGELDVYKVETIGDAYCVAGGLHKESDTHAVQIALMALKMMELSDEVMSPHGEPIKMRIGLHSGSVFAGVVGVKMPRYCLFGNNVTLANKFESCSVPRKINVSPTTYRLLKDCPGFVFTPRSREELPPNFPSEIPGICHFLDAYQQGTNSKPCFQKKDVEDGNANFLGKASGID
The assay is described as follows: sGC-HEK-cGMP assay. Particulars: HEK293 cells, 10 min incubation, intracellular cGMP by LC/MS; for Increase in cGMP Concentration Tested at 10 μM in HEK Assay: test compound 10 μM; for Increase in cGMP Concentration Tested at 30 μM in HEK Assay: test compound 30 μM. Format: cell-based.

The test system of another assay is thoracic aortic rings. The assay can be described thus: Thoracic aortic rings assay. Particulars: relaxation of male Sprague-Dawley rat aortic rings contracted with 100 ng/mL phenylephrine; read-out: EC50, thoracic aortic ring assay activity. As to the method:
Thoracic aortic rings were dissected from anesthetized (isoflurane) male Sprague-Dawley rats weighing 275-299 g. Tissues were immediately transferred to ice-cold Krebs-Henseleit solution, which had been aerated with 95% O2 and 5% CO2 for 30 minutes. Following removal of connective tissue, aortic sections were cut into 4 rings (˜2 mm each) and suspended on 2 L-shaped hooks, with one hook fixed at the bottom of the tissue bath (Schuler Organ Bath, Harvard Apparatus) and the other connected to a force transducer (F30 Force Transducer, Harvard Apparatus). Baths contained Krebs Henseleit solution (10 mL) heated to 37° C. and aerated with 95% O2 and 5% CO2. Rings were brought to an initial tension of 0.3-0.5 g and gradually raised to a resting tension of 1.0 g over 60 minutes. Rings were rinsed with Krebs Henseleit solution (heated to 37° C. and aerated with 95% O2 and 5% CO2) at 15 minute intervals until a stable baseline was obtained. Rings were considered to be stable after a resting tension of 1.0 g was maintained (for approximately 10 minutes) without need for adjustment. Rings were then contracted with 100 ng/mL phenylephrine by adding 100 uL of a […] phenylephrine stock solution. Tissues achieving a stable contraction were then treated in a cumulative, dose dependent manner with test compounds prepared in dimethylsulfoxide (DMSO). In some cases, tissues were rinsed three times over a 5 minute period with Krebs-Heinseleit's solution (heated to 37° C. and aerated with 95% O2 and 5% CO2), allowed to stabilize at baseline, and then used for characterization of other test articles or DMSO effects. All data were collected using the HSE-ACAD software provided by Harvard Apparatus. Percent relaxation effects were calculated in Microsoft Excel using the recorded tension value of 100 ng/mL phenylephrine treatment as 0% inhibition and treatment with 100 μM 3-isobutyl-1-methylxanthine as 100% inhibition. EC50 values were calculated from concentration-response curves generated with GraphPad Prism Software.

Consider `Nc1ccnc(-c2nn(Cc3ccccc3F)c3c2CCCC3)n1` [Compound I-22], for which, in assay [1], the “Increase in cGMP Concentration Tested at 10 μM in HEK Assay” value (shortened to “Increase … at 10 μM in HEK Assay”) is “D (D represents an increase ranging from 20 fold to less than 50 fold)” and the “Increase in cGMP Concentration Tested at 30 μM in HEK Assay” value (“Increase … at 30 μM in HEK Assay” below) is listed as “E (E represents an increase ranging from 50 fold to less than 100 fold)”. Besides, the concentration for a half-maximal effect (EC50) in the assay with thoracic aortic rings worked out at 2000 nM.

As for `Fc1ccccc1Cn1nc(-c2ncccn2)c2c1CCCC2` [Compound I-1], in assay [1], the “Increase … at 10 μM in HEK Assay” value was “D (D represents an increase ranging from 20 fold to less than 50 fold)” and the “Increase … at 30 μM in HEK Assay” value is given as “D (D represents an increase ranging from 20 fold to less than 50 fold)”. Further, the EC50 with thoracic aortic rings was determined as 1300 nM.

Regarding `COC(=O)N(C)c1c(N)nc(-c2nn(Cc3ccccc3F)c3c2CCC3)nc1N` [Compound I-37], in assay [1], the “Increase … at 10 μM in HEK Assay” value is “C (C represents an increase ranging from 10 fold to less than 20 fold)” and the “Increase … at 30 μM in HEK Assay” value is “B (B represents an increase ranging from 5 fold to less than 10 fold)”. Further, in the assay on thoracic aortic rings, the EC50 came out at 1200 nM.

With `Nc1ccnc(-c2nn(Cc3ccccc3F)c3c2CCC3)n1` [Compound I-3], in assay [1], the “Increase … at 10 μM in HEK Assay” value is recorded as “D (D represents an increase ranging from 20 fold to less than 50 fold)” and the “Increase … at 30 μM in HEK Assay” value is “E (E represents an increase ranging from 50 fold to less than 100 fold)”. Further, the EC50 with thoracic aortic rings amounted to 1200 nM.

With `Nc1nc(-c2nn(Cc3ccccc3F)c3ncccc23)ncc1C1CC1` [Reference Cpd., BAY 41-2272, reference compound], the concentration for a half-maximal effect (EC50) in the assay on thoracic aortic rings fell in the range of 340 to 950 nM.

As to `Nc1ccnc(-c2nn(Cc3ccccc3F)c3c2C2CCC3C2)n1` (stereo not shown) [Compound I-31], in assay [1], the “Increase … at 10 μM in HEK Assay” value is reported as “A (A represents no increase or an increase ranging from more than 0 fold to less than 5 fold)” and the “Increase … at 30 μM in HEK Assay” value is reported as “A (A represents no increase or an increase ranging from more than 0 fold to less than 5 fold)”.

Regarding `O=C(c1ccccn1)N1CCc2c(c(-c3ncccn3)nn2Cc2ccccc2F)C1` [Compound I-56], in assay [1], the “Increase … at 10 μM in HEK Assay” value is recorded as “A (A represents no increase or an increase ranging from more than 0 fold to less than 5 fold)” and the “Increase … at 30 μM in HEK Assay” value is reported as “A (A represents no increase or an increase ranging from more than 0 fold to less than 5 fold)”.

As to `COC(=O)Nc1c(N)nc(-c2nn(Cc3ccccc3F)c3c2CCCC3)nc1N` [Compound I-13], in assay [1], the “Increase … at 10 μM in HEK Assay” value is on record as “A (A represents no increase or an increase ranging from more than 0 fold to less than 5 fold)” and the “Increase … at 30 μM in HEK Assay” value is given as “A (A represents no increase or an increase ranging from more than 0 fold to less than 5 fold)”.
